In PMC2668518 (Bioconjugate chemistry, 2009):

Test: Biodistribution of radiolabeled closo-borate
Format: in vivo, Male athymic mice (nu/nu)
Details: mice; for tissue(s) with the highest concentration of radionuclide: 1 and 4 h pi; for concentration in urine: 1 h pi, urine at sacrifice; for route of excretion: inferred from tissue distribution at 1 and 4 h pi; for concentration in kidney: injected via lateral tail vein

Substance	tissue(s) with the highest concentration of radionuclide	concentration in urine	route of excretion	concentration in kidney (1 h post injection)	concentration in kidney (4 h post injection)
[Et3NH]2B10H8I-CONHpropyl [[^125I]1e]	kidney	320 ± 135 %ID/g	renal clearance	6.6 %ID/g	0.27 %ID/g
[Et3NH]2B12H10At-CONHpropyl [[^211At]2c]	kidney		kidney		
[Et3NH]2B12H10I-CONHpropyl [[^125I]2b]	kidney		kidney	19.8 %ID/g	26.5 %ID/g

The next lines start with the values.

tissue(s) with the highest concentration of radionuclide	concentration in urine	route of excretion	concentration in kidney (1 h post injection)	concentration in kidney (4 h post injection)	Substance
liver and intestines	33.11 ± 14.06 %ID/g				[nBu4N]2B10H8At-CONHpropyl [[^211At]1c]
liver and intestines	174.43 ± 90.33 %ID/g	hepatobiliary rather than renal			[nBu4N]2B10H8I-CONHpropyl [[^125I]1b]
